Results published in patent publication US3962269A, “1,3-Propandiol intermediates” (Eli Lilly and Company, priority 1975, dated 1976).
Counter-ions that a name gives are not always drawn.

Key:
[1] = analgesic activity, general statements; format: in vivo; details: in words
[2] = mouse writhing assay (acetic acid), analgesic activity; format: in vivo, mouse (Cox standard males); details: for ED50 / PT (peak analgesic time), Mouse Writhing, Oral / PT (peak analgesic time), Mouse Writhing, Subcutaneous: mouse; for ED50: dose giving significant peak analgesic effect in 50 percent of test animals; for PT (peak analgesic time), Mouse Writhing, Oral / PT (peak analgesic time), Mouse Writhing, Subcutaneous: time after dosing of maximum analgesic response
Description: Analgesic activity for representative compounds of the instant invention was determined with two standard animal techniques. The mouse writhing assay used was a modification of the method wherein frequency of writhing [Hendershot and Sorsaith, J. Pharm. Exp. Ther. 125, 237 (1959)] is observed after intra peritoneal administration of 0.6 percent acetic acid [Koster et al., Fed. Proc. Soc. Expt. Biol. 18, 412 (1959)]. The mice were Cox standard males weighting 20-22 gm. The number of writhes was determined for each of five mice during the period 5-15 minutes after acetic acid treatment. The percent inhibition due to drug treatment was determined by comparison with control mice.
(§1) Table 1 below gives the results of testing representative compounds of this invention as analgesics by the above methods. The first four columns in Table 1 describe the particular compound tested. The next eight columns give the mouse writhing results and the rat tail jerk results both by oral and subcutaneous administration. The columns headed PT ("Peak Analgesic Time") give the time in minutes after dosing at which the maximum analgesic responses are measured. The columns headed "ED50 (mg./kg.)" give the doses (ED50) in milligrams per kilogram (mg./kg.) of body weight that produce a significant peak analgesic effect in 50 percent of test animals.

[3] = rat tail jerk assay, analgesic activity; format: in vivo, rat (Sprague-Dawley females); details: for ED50: dose giving significant peak analgesic effect in 50 percent of test animals; for PT (peak analgesic time), Rat Tail Jerk, Oral / PT (peak analgesic time), Rat Tail Jerk, Subcutaneous: time after dosing of maximum analgesic response
Excerpt: The other analgesic method was the rat tail jerk assay described by Robbins, J. Amer. Pharm. Assoc. Sci. Ed., 44, 497 (1955). The rats were Sprague-Dawley females weighing 70-90 g. Briefly, the tail was held on a temperature controlled tail rest near a nichrome resistance wire through which a current could flow. A switch used to start the flow of current to heat the wire simultaneously started a timer. When a jerk of the tail was detected by the operator, the switch was released and the latency of the response was recorded as the "reaction time." The tail was placed near the hot wire stimulus for a maximum duration of 30 seconds. Twenty rats were tested as a group in a randomized order. At least five rats were used for each treatment and each rat was dosed and tested only once.
as §1

[4] = cited from earlier work
[5] = oral, read-out: ED50, Mouse Writhing, Oral
[6] = sc, subcutaneous, read-out: ED50, Mouse Writhing, Subcutaneous
[7] = oral, read-out: ED50, Rat Tail Jerk, Oral
[8] = sc, subcutaneous, read-out: ED50, Rat Tail Jerk, Subcutaneous

Row | SMILES | analgesic activity [1] | ED50 [2, 5] [mg/kg] | PT (peak analgesic time), Mouse Writhing, Oral ([2]; oral) [min] | PT (peak analgesic time), Mouse Writhing, Subcutaneous ([2]; subcutaneous) [min] | ED50 [2, 6] [mg/kg] | ED50 [3, 7] [mg/kg] | PT (peak analgesic time), Rat Tail Jerk, Oral ([3]; oral) [min] | ED50 [3, 8] [mg/kg] | PT (peak analgesic time), Rat Tail Jerk, Subcutaneous ([3]; subcutaneous) [min] | analgesic activity (literature) [4] | side effects (literature) [4] | duration of analgesic action in mice ([2]; mice)
1 | CN(C)C(c1ccccc1)C1COCOC1 (single isomer, unassigned) [1-N,N-dimethyl-α-phenyl-m-dioxane-5-methylamine] | analgesically active | – | – | – | – | – | – | – | – | – | – | –
2 | CN(C)C(c1ccccc1)C1COCOC1 (single isomer, unassigned) [l C6 H5, H, HCl, l-N,N-dimethyl-α-phenyl-m-dioxane-5-methylamine hydrochloride] | – | 16 | 15 | 15 | 6 | 10 to 20 | 15 | 7 | 15 | – | – | –
3 | c1ccc(C2(c3ccccc3)OC[C@H]([C@@H]3CCCCN3)O2)cc1 [Dexoxadrol, d-2,2-diphenyl-4-(2-piperdyl)-1,3-dioxolane hydrochloride] | – | – | – | – | – | – | – | – | – | mild analgesic | high incidence of psychotomimetic side effects | –
4 | CC1OCC(CN(C)C)O1 (stereo not drawn) [N,N,2-Trimethyl-1,3-dioxolane-4-methylamine] | – | – | – | – | – | – | – | – | – | mild analgesic | cholinergic side effects | –
5 | CN(C)C(c1cccnc1)C1COCOC1.Cl.Cl (stereo not drawn) [dl 3-pyridyl, H, 2HCl, N,N-dimethyl-α-(3-pyridyl)-m-dioxane-5-methylamine dihydrochloride] | – | 25 | 30 | 30 | 10 | 7 | 15 | 7 | 15 | – | – | –
6 | Cc1ccc(C(C2COCOC2)N(C)C)cc1.O=C(O)/C=C\C(=O)O (stereo not drawn) [dl 4-CH3 --C6 H4, H, Maleate, N,N-dimethyl-α-(4-methylphenyl)-m-dioxane-5-methylamine maleate] | – | 110 | 45 | 30 | 20 | 60 | 45 | 8 | 30 | – | – | –
7 | CCC1OCC(C(c2ccccc2)N(C)C)CO1 (stereo not drawn) [dl C6 H5, C2 H5, N,N-dimethyl-2-ethyl-α-phenyl-m-dioxane-5-methylamine] | – | 23 | 75 | 75 | 19 | 21 | 15 | 3.4 | 15 | – | – | long acting in mice
8 | CC1OCC(C(c2ccccc2)N(C)C)CO1 (stereo not drawn) [dl C6 H5, CH3, N,N,2-Trimethyl-α-phenyl-m-dioxane-5-methylamine] | – | 19 | 15 | 15 | 3.6 | 12 | 15 | 2.8 | 20 | – | – | –
9 | CN(C)C(c1ccccc1)C1COCOC1.Cl (stereo not drawn) [dl C6 H5, H, HCl, N,N-dimethyl-α-phenyl-m-dioxane-5-methylamine hydrochloride] | – | 28 | 45 | 15 | 15 | 27 | 15 | 4.5 | 15 | – | – | –
